Test results: patent US10548898B2, “Quinazoline compounds” (Gilead Sciences, Inc., priority 2014, dated 2020)
Like-named read-outs stand apart in the source and are kept apart here.

Tests used:
Format in all cases: cell-based
[1] = system: HIV-1 recombinant strain encoding reverse transcriptase mutation E138K/M184V; test: Resistance profile against HIV-1 RT mutants in MT-2 cells, E138K/M184V; details: ratio of mean EC50 mutant/WT virus
Method: Compounds were tested for antiviral activity against a panel of NNRTI resistant viruses. A panel of 8 clonal site-directed mutant viruses representing the major resistance development pathways against rilpivirine (“RPV”), efavirenz (“EFV”), and nevirapine (“NVP”), containing both single and double mutations within HIV-1 reverse transcriptase was employed. Further details and background can be found in Janssen et al. J. Med. Chem, 2005, 48, 1901-1909; Das et al., Proc. Nat. Acad. Sci., 2008, vol., 105, no. 5, 1466-1471; and Kuroda et al., Nature Chemistry, 2013, DOI: 10.1038/NCHEM. 1559. […] HIV-1 recombinant strains encoding reverse transcriptase mutations K103N, Y181C, Y188L, G190A, K103N/Y181C, L1001/Y181C, E138K or E138KIM 184V were constructed by site-directed mutagenesis. Wild-type and mutant viruses were prepared by transfecting infectious proviral HXB2-based cDNA clones into MT-2 cells and harvesting the cell supernatants. MT-2 cells were infected with wild-type and mutant HIV-1 strains at a multiplicity of infection (MOI) of 0.005 by gentle mixing for 3 hours at 37° C. and then added at a density of 16,667 cells per well in 50 μL complete RPMI cell culture media (containing 10% fetal bovine serum (FBS) and 10% penicillin-streptomycin) to 96-well plates containing 50 μL of a 3-fold serial dilution of test compounds in RPMI medium. After 5 days of incubation at 37° C. in a humidified incubator in the presence of 5% CO2. 100 μL of Cell Titer-Glo™ Reagent (Promega Biosciences, Inc., Madison, Wis.) was added to each well and the relative light units (RLU) measured on an Envision plate reader. […] The EC50 value was defined as the compound concentration inducing a 50% decrease in virus replication. […]
[formula] where y=virus inhibition, x=drug concentration, M=maximum inhibition, H=minimum inhibition and n=Hill coefficient, EC50 values (mean±standard deviation) were calculated from at least three independent experiments performed in triplicate. The level of resistance was calculated as a ratio of the mean EC50 for each mutant/WT virus. […]

[2] = system: HIV-1 recombinant strain encoding reverse transcriptase mutation Y188L; test: Resistance profile against HIV-1 RT mutants in MT-2 cells, Y188L; details: ratio of mean EC50 mutant/WT virus
Method: (§1) Compounds were tested for antiviral activity against a panel of NNRTI resistant viruses. A panel of 8 clonal site-directed mutant viruses representing the major resistance development pathways against rilpivirine (“RPV”), efavirenz (“EFV”), and nevirapine (“NVP”), containing both single and double mutations within HIV-1 reverse transcriptase was employed. Further details and background can be found in Janssen et al. J. Med. Chem, 2005, 48, 1901-1909; Das et al., Proc. Nat. Acad. Sci., 2008, vol., 105, no. 5, 1466-1471; and Kuroda et al., Nature Chemistry, 2013, DOI: 10.1038/NCHEM. 1559. […] HIV-1 recombinant strains encoding reverse transcriptase mutations K103N, Y181C, Y188L, G190A, K103N/Y181C, L1001/Y181C, E138K or E138KIM 184V were constructed by site-directed mutagenesis. Wild-type and mutant viruses were prepared by transfecting infectious proviral HXB2-based cDNA clones into MT-2 cells and harvesting the cell supernatants. MT-2 cells were infected with wild-type and mutant HIV-1 strains at a multiplicity of infection (MOI) of 0.005 by gentle mixing for 3 hours at 37° C. and then added at a density of 16,667 cells per well in 50 μL complete RPMI cell culture media (containing 10% fetal bovine serum (FBS) and 10% penicillin-streptomycin) to 96-well plates containing 50 μL of a 3-fold serial dilution of test compounds in RPMI medium. After 5 days of incubation at 37° C. in a humidified incubator in the presence of 5% CO2. 100 μL of Cell Titer-Glo™ Reagent (Promega Biosciences, Inc., Madison, Wis.) was added to each well and the relative light units (RLU) measured on an Envision plate reader. […] The EC50 value was defined as the compound concentration inducing a 50% decrease in virus replication. Data analysis for the antiviral activity observed in MT-2 cells was performed using XL-Fit™ software (IDBS, Guildford, Surrey, UK) to calculate EC50 from an 8-point dose-response curve using the following equation:
(§2) [formula] where y=virus inhibition, x=drug concentration, M=maximum inhibition, H=minimum inhibition and n=Hill coefficient, EC50 values (mean±standard deviation) were calculated from at least three independent experiments performed in triplicate. The level of resistance was calculated as a ratio of the mean EC50 for each mutant/WT virus. Results are disclosed in FIG. 1 and in Tables 3 and 4 below.

hERG channels = molecular target: T1, hERG channels (Homo sapiens, UniProt Q12809); test: hERG assay, whole cell recordings in CHO cell line stably expressing hERG channels; details: CHO cells, whole cell patch clamp; greater than values indicate the maximum achievable concentration in the assay
T1 construct: host or cells: CHO cell line stably expressing hERG
T1 sequence (Q12809 whole entry): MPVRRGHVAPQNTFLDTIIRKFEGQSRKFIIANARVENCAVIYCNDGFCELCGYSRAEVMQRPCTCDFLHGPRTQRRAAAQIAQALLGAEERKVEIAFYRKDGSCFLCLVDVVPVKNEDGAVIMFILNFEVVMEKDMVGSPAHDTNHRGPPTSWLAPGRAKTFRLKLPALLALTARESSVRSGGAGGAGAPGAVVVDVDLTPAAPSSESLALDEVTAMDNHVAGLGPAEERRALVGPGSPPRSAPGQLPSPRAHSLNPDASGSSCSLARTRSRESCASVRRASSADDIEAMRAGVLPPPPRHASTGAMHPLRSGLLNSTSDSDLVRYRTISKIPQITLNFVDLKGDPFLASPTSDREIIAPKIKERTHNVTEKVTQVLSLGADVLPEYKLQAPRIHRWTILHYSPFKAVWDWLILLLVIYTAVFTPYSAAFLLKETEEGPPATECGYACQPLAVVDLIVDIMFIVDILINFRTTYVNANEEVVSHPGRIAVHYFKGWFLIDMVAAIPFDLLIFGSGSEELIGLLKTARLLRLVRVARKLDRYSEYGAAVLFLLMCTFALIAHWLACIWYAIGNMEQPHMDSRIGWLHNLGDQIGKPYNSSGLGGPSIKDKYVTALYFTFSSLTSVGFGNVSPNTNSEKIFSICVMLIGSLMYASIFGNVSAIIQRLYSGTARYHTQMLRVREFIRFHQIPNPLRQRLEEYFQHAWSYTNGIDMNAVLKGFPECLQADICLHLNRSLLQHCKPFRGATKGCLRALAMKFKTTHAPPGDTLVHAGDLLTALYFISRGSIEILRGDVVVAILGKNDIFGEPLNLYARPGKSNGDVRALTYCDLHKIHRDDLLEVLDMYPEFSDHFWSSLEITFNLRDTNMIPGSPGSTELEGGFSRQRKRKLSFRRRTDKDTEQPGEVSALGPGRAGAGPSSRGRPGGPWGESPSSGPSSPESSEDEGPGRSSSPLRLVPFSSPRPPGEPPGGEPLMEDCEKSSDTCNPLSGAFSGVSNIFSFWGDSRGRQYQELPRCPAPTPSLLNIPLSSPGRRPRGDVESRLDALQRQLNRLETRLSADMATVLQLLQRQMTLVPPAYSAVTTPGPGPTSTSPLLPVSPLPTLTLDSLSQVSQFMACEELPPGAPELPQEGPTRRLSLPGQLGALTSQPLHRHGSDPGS
Method: AVIVA's CHO cell line, which stably expresses hERG channels, was used for the study. Cells were cultured in DMEM/F12 containing 10% FBS, 1% penicillin/streptomycin and 500 μg/ml G418. Before testing, cells were harvested using Accumax (Innovative Cell Technologies).
External Solution: 2 mM CaCl2; 2 mM MgCl2; 4 mM KCl; 150 mM NaCl; 10 mM Glucose; 10 mM HEPES; 305-315 mOsm; pH 7.4 (adjusted with 5M NaOH.)
Internal Solution: 140 mM KCl; 10 mM MgCl2; 6 mM EGTA; 5 mM HEPES-Na; 5 mM ATP-Mg; 295-305 mOsm; pH 7.25 (adjusted with 1M KOH).
Whole cell recordings were performed using PX 7000A (Axon Instruments) with AVIVA's SealChip™ technology. Cells were voltage clamped at a holding potential of −80 mV. The hERG current was then activated by a depolarizing step to −50 mV for 300 ms. This first step at −50 mV was used as a baseline for measuring peak amplitude of the tail current. Next, a voltage step to +20 mV was applied for 5 s to activate the channels. Finally, a step back to −50 mV for 5 s removed activation and the deactivating tail current was recorded.
All test articles were prepared from 10 mM DMSO stock solutions. Solutions were mixed by sonication for 20 min, followed by vigorous vortexing. Prior to testing, compounds were diluted to test concentrations in glass vials using External Solution. Dilutions were prepared no longer than 20 min prior to use.
After achieving whole cell configuration, cells were monitored for 90 s to assess stability and then washed with External Solution for 66 s. The voltage protocol was then applied to the cells every 12 s throughout the procedure. Only stable cells with recording parameters above threshold were allowed to enter the drug addition procedure.
External solution containing 0.1% DMSO (vehicle) was applied to the cells to establish a baseline. After allowing the current to stabilize for 3 to 10 min, test articles were applied. Test article solutions were added to cells in 4 separate additions. Cells were kept in test solution until effect of the test article reached steady state, to a maximum of 12 min. Next, 1 μM cisapride (positive control) was added. Finally, washout with External Solution was performed until the recovery current reached steady state.
Data analysis was performed using DataXpress (Axon Instruments), Clampfit (Axon Instruments) and Origin (OriginLab Corporation) software. The greater than values in Table 5 indicate the maximum achievable concentration in the assay (e.g., compounds achieving their solubility limit).

[3] = system: HIV-1 recombinant strain encoding reverse transcriptase mutation Y181C; test: Resistance profile against HIV-1 RT mutants in MT-2 cells, Y181C; details: ratio of mean EC50 mutant/WT virus
Method: as §1, §2

[4] = system: HIV-1 recombinant strain encoding reverse transcriptase mutation G190A; test: Resistance profile against HIV-1 RT mutants in MT-2 cells, G190A; details: ratio of mean EC50 mutant/WT virus
Method: as §1, §2

[5] = system: HIV-1 recombinant strain encoding reverse transcriptase mutation K103N; test: Resistance profile against HIV-1 RT mutants in MT-2 cells, K103N; details: ratio of mean EC50 mutant/WT virus
Method: as §1, §2

[6] = system: HIV-1 reverse transcriptase mutant K103N; test: High throughput cytopathic effect assay in MT-4 cells, K103N mutant; details: for EC50: Human immunodeficiency virus 1, MT4, 120 h, read-out: MT4 EC50 (nM) against K103N; for FC against mutant K103N: fold change of MT4 EC50 versus w.t. assay 2
Outline: (§3)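 MT-4 cells infected 1 h at 37 °C at MOI 0.0005, then plated onto ten-point half-log compound dilutions and incubated 5 days. Cell viability read by CellTiter-Glo luminescence, normalized to AZT and DMSO controls as % CPE protection; EC50 from four-parameter fit.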

[7] = system: HIV-1 recombinant strain encoding reverse transcriptase mutation L100I/Y181C; test: Resistance profile against HIV-1 RT mutants in MT-2 cells, L100I/Y181C; details: ratio of mean EC50 mutant/WT virus
Method: as §1, §2

[8] = system: HIV-1 reverse transcriptase mutant Y181C; test: High throughput cytopathic effect assay in MT-4 cells, Y181C mutant; details: for EC50: Human immunodeficiency virus 1, MT4, 120 h, read-out: MT4 EC50 (nM) against Y181C; for FC against mutant Y181C: fold change of MT4 EC50 versus w.t. assay 2
Outline: as §3

[9] = system: HIV-1 recombinant strain encoding reverse transcriptase mutation K103N/Y181C; test: Resistance profile against HIV-1 RT mutants in MT-2 cells, K103N/Y181C; details: ratio of mean EC50 mutant/WT virus
Method: as §1, §2

HIV-1 HBX2 (wild type) = test: High throughput cytopathic effect assay in MT-4 cells, wild type HIV-1
Outline: as §3

[10] = Human immunodeficiency virus 1, MT4, 120 h, MT-4 cells, 5 days, cytopathic effect, Cell TiterGlo, read-out: MT4 EC50 (nM) against w.t.
[11] = Human immunodeficiency virus 1, MT4, read-out: MT4 EC50 (nM) against w.t. assay 2

Cc1cc(/C=C/C#N)cc(C)c1-c1cccc2c(N)nc(Nc3ccc(C#N)cc3)nc12 [Compound 2, (E)-4-((4-Amino-8-(4-(2-cyanovinyl)-2,6-dimethylphenyl)quinazolin-2-yl)amino)benzonitrile] was tested, and the “Biology resistance panel-low throughput fold change (FC) E138K/M184V” value [1] was 5.0, the “Biology resistance panel-low throughput fold change (FC) Y188L” value [2] was 10.0 and the “hERG” value (hERG channels) was >1 µM. For the same compound, the “Biology resistance panel-low throughput fold change (FC) Y181C” value [3] was 4.0, the “Biology resistance panel-low throughput fold change (FC) G190A” value [4] was 1.6 and the “Biology resistance panel-low throughput fold change (FC) K103N” value [5] was 0.9. The EC50 [6] was 4 nM, the “FC against mutant K103N” value [6] was 1.1 and the “Biology resistance panel-low throughput fold change (FC) L100I/Y181C” value [7] was 1.6. For the same compound, the EC50 [8] was 10.9 nM, the “FC against mutant Y181C” value [8] was 3.0 and the “Biology resistance panel-low throughput fold change (FC) K103N/Y181C” value [9] was 4.1. It also gave an EC50 (HIV-1 HBX2 (wild type); [10]) of 3.7 nM and an EC50 (HIV-1 HBX2 (wild type); [11]) of 3.6 nM.
For Cc1cc(/C=C/C#N)cc(C)c1-c1cccc2c(=O)[nH]c(Nc3ccc(C#N)cn3)nc12 [Compound 34, (E)-6-((8-(4-(2-Cyanovinyl)-2,6-dimethylphenyl)-4-oxo-3,4-dihydroquinazolin-2-yl)amino)nicotinonitrile], the “Biology resistance panel-low throughput fold change (FC) E138K/M184V” value [1] was 4.2, the “Biology resistance panel-low throughput fold change (FC) Y188L” value [2] was 18.7 and the “hERG” value (hERG channels) was >3 µM. For the same compound, the “Biology resistance panel-low throughput fold change (FC) Y181C” value [3] was 3.4, the “Biology resistance panel-low throughput fold change (FC) K103N” value [5] was 1.4 and the EC50 [6] was 3.2 nM. For the same compound, the “FC against mutant K103N” value [6] was 1.0, the “Biology resistance panel-low throughput fold change (FC) L100I/Y181C” value [7] was 1.7 and the EC50 [8] was 11.3 nM. The “FC against mutant Y181C” value [8] was 3.7, the “Biology resistance panel-low throughput fold change (FC) K103N/Y181C” value [9] was 12.4 and the EC50 (HIV-1 HBX2 (wild type); [10]) was 2.4 nM. The EC50 (HIV-1 HBX2 (wild type); [11]) was 3 nM.
With O=C1Nc2ccc(Cl)cc2[C@@](C#CC2CC2)(C(F)(F)F)O1 [Efavirenz, reference compound] the “Biology resistance panel-low throughput fold change (FC) Y188L” value [2] was 132.5, the “Biology resistance panel-low throughput fold change (FC) Y181C” value [3] was 3.6 and the “Biology resistance panel-low throughput fold change (FC) G190A” value [4] was 14.8. For the same compound, the “Biology resistance panel-low throughput fold change (FC) K103N” value [5] was 48.1, the EC50 [6] was 46.4 nM and the “FC against mutant K103N” value [6] was 28.9. The “Biology resistance panel-low throughput fold change (FC) L100I/Y181C” value [7] was >200, the EC50 [8] was 3.8 nM and the “FC against mutant Y181C” value [8] was 2.3. For the same compound, the “Biology resistance panel-low throughput fold change (FC) K103N/Y181C” value [9] was 83.5, the EC50 (HIV-1 HBX2 (wild type); [10]) was 1.3 nM and the EC50 (HIV-1 HBX2 (wild type); [11]) was 1.6 nM.
With Cc1cc(/C=C/C#N)cc(C)c1Nc1ccnc(Nc2ccc(C#N)cc2)n1 [Rilpivirine, reference compound] the “Biology resistance panel-low throughput fold change (FC) E138K/M184V” value [1] was 3.0, the “Biology resistance panel-low throughput fold change (FC) Y188L” value [2] was 22.8 and the “hERG” value (hERG channels) was 0.5 µM. The “Biology resistance panel-low throughput fold change (FC) Y181C” value [3] was 4.6, the “Biology resistance panel-low throughput fold change (FC) G190A” value [4] was 0.8 and the “Biology resistance panel-low throughput fold change (FC) K103N” value [5] was 1.0. The EC50 [6] was 1.5 nM, the “FC against mutant K103N” value [6] was 1.2 and the “Biology resistance panel-low throughput fold change (FC) L100I/Y181C” value [7] was 18.1. For the same compound, the EC50 [8] was 3.8 nM, the “FC against mutant Y181C” value [8] was 3.1 and the “Biology resistance panel-low throughput fold change (FC) K103N/Y181C” value [9] was 7.7. It also gave an EC50 (HIV-1 HBX2 (wild type); [10]) of 0.9 nM and an EC50 (HIV-1 HBX2 (wild type); [11]) of 1.3 nM.
